The numbers were not newly measured in patent US20040074447A1, “Methods of reducing incidence of stillborn pigs by using progesterone receptor antagonists” (priority 2002, published 2004), which cites them from elsewhere.

One data set relates to swine. To be noted: oral, 5 or 10 mg/kg BW; cited from earlier work.
The subject of another data set is sheep. To be noted: 5 or 10 mg/kg BW; cited from earlier work.
The conditions of data set [1]: relative to propranolol; cited from earlier work.
The test system of another data set is sows in labor. To be noted: 150 μg, sows in labor before birth of the first pig; cited from earlier work.

In the case of `C[C@]1(O)CC[C@H]2[C@@H]3CC[C@@]45O[C@]4(C)C(O)=C(C#N)C[C@]5(C)[C@H]3CC[C@@]21C` [Epostane], the “interval from oral administration to birth of the first pig” value in the data set with swine is given as “about 34 hr”. The “interval from oral administration to birth of lambs” value in the data set on sheep was 33 h.
Take `CC(C)NCC(O)COc1cccc2[nH]c3ccccc3c12` (stereo not shown) [carazolol]: in data set [1], the “membrane stabilizing potential, less than that of propranolol” value is recorded as 13 fold.
In the case of `CC(C)(C)NCC(O)c1cc(Cl)c(N)c(Cl)c1` (stereo not shown) [clenbuterol], the delay of parturition result in the data set with sows in labor is recorded as “up to 15 hr”.
